In ChEMBL document CHEMBL1145221, “2,3-Diphenylpropionic acids as potent VLA-4 antagonists” (Bioorg Med Chem Lett, 2005):
Converted amounts (≈) assume the structure as drawn.

Test: physchem
Conditions: water

| solubility [µg/mL] | Compound |
| --- | --- |
| 219 (≈ 462 µM) | COc1cccc(OC)c1-c1ccc(C[C@H](NC(=O)c2c(Cl)cccc2Cl)C(=O)O)cc1 |
| 330 (≈ 600 µM) | Cc1cccc(Br)c1C(=O)N[C@@H](Cc1ccc(NC(=O)c2c(Cl)cccc2Cl)cc1)C(=O)O |
